Data published in US9295631B2, “Skin lightening composition” (Conopco, Inc., priority 2012, dated 2016).

Test system: Primary human melanocytes
Assay: Melanin content in-vitro assay after siRNA transfection
Type: cell-based
Design: dose or concentration left out as unconfirmed
Details: 72 hours; average of 3 readings
Experimental: Ten siRNA double strands of which one strand has the oligonucleotide as given below were synthetically prepared and used to estimate the potential as skin lightening agent using the melanin content in-vitro assay. It is clear to a person skilled in this area that specifying a single strand is sufficient to fully define the double stranded siRNA. The in-vitro assay was carried out as below: Primary human melanocytes were cultured for 24 hrs. Cells were transfected with Mirus Trans IT-TKO transfection reagent and duplex oligomers in culture media. […] After 1 hour at 60° C., absorbance was measured at 400 nm. Melanin content is expressed as % melanin content over scramble treated cells. The experiments were carried out and the data on melanin content as a percentage of the control sample is summarized as an average of 3 readings in table 1. Kojic acid is known to complete action within 72 hours.

`O=c1cc(CO)occ1O` [Kojic acid] was tested, and the “% control melanin” value was 76%.
